Results from ChEMBL document CHEMBL1255236, “Hepatotoxicity observed in clinical trials of aplaviroc (GW873140)” (Antimicrob Agents Chemother, 2008).

Experiments:
[1] = system: Human immunodeficiency virus 1; assay: Antiviral activity against Human immunodeficiency virus 1 infected in human assessed as log reduction in HIV-1 RNA level at 600 mg/kg, BID after 10 days; type: functional
Monkey = assay: Hepatotoxicity in monkey assessed as increase in liver ALT level at 2000 mg/kg/day; type: toxicity, organism-based; details: cercopithecidae, in vivo
[2] = AUC (0 to 24 hrs) in Human immunodeficiency virus 1 infected human at 400 mg/kg, BID; type: ADME, organism-based; design: time < 24 hr, dose 400 mg/kg; details: plasma
[3] = AUC (0 to 24 hrs) in Human immunodeficiency virus 1 infected human at 600 mg/kg, BID; type: ADME, organism-based; design: time < 24 hr, dose 600 mg/kg; details: plasma
[4] = AUC (0 to 24 hrs) in Human immunodeficiency virus 1 infected human at 200 mg/kg, BID; type: ADME, organism-based; design: time < 24 hr, dose 200 mg/kg; details: plasma
Rattus norvegicus [5] = assay: Hepatotoxicity in rat assessed as increase in liver ALT level at >500 mg/kg/day; type: toxicity, organism-based; details: in vivo
Rattus norvegicus [6] = assay: Hepatotoxicity in rat assessed as increase in liver bilirubin level at >500 mg/kg/day; type: toxicity, organism-based; details: in vivo
[7] = AUC (0 to 24 hrs) in Human immunodeficiency virus 1 infected human at 800 mg/kg, QD; type: ADME, organism-based; design: time < 24 hr, dose 800 mg/kg; details: plasma
[8] = AUC (0 to 24 hrs) in Human immunodeficiency virus 1 infected human at 800 mg/kg, BID; type: ADME, organism-based; design: time < 24 hr, dose 800 mg/kg; details: plasma
[9] = Half life in healthy human at 200 to 800 mg/kg, BID; type: ADME, organism-based; design: dose 200-800 mg/kg; details: in vivo

- AUC at 24 h [2]: 6060 ng·h/mL
- AUC at 24 h [3]: 2100 ng·h/mL
- AUC at 24 h [4]: 2010 ng·h/mL
- AUC at 24 h [7]: 5840 ng·h/mL
- AUC at 24 h [8]: 3410 ng·h/mL
- half-life [9]: 3 h
Structure (SMILES): CCCCN1C(=O)[C@@H]([C@H](O)C2CCCCC2)NC(=O)C12CCN(Cc1ccc(Oc3ccc(C(=O)O)cc3)cc1)CC2 [APLAVIROC]
- FC [1]: 1.66
- Activity (Monkey): Non-toxic
- Activity (Rattus norvegicus [5]): Toxic
- Activity (Rattus norvegicus [6]): Toxic
